Tested on: SH-SY5Y cells
Test: Cell viability assay (MTT) in SH-SY5Y cells
Format: cell-based, human
Details: H2O2 0, 50, 100, 150, 200 or 250 μM, 24 hours
Protocol: To determine the concentration of C. schoenanthus ethanol extracts which can be used to investigate their anti-stress effect, SH-SY5Y cells were cultured with several concentrations (1/100, 1/1000, or 1/10000 v/v dilution of C. schoenanthus ethanol extract in culturing medium) for 72 hours.
SH-SY5Y cells were treated with different concentrations of C. schoenanthus extract (at a 1/500, 1/750, 1/1000, 1/1500, or 1/2000 v/v dilution in medium) for 72 hours and cell viability was determined by MTT assay.
To evaluate whether H2O2 influences neuronal cytotoxicity, SH-SY5Y cells were treated with various concentrations of H2O2 (0, 50, 100, 150, 200, or 250 μM) for 24 hours.
A cell survival analysis was performed using 3-(4,5-Dimethylthiazol-2-yl)-2,5-diphenyltetrazolium bromide (MTT), which was dissolved in PBS to a final concentration of 5 mg/ml. […] Then, 100 μl of 10% of sodium dodecyl sulfate (SDS) was added and after overnight incubation, the absorbance was determined at 570 nm. The control wells which contained cultured cells with medium only were considered as 100% cell viability.

## OO [H2O2]
  cytotoxicity in SH-SY5Y cells: dose-dependent cytotoxicity
